We go through 7 compounds from US6083940A, “Method and composition for effecting contraception in a mammalian male” (SRI International, priority 1998, dated 2000).

“Also recorded” adds a separate entry of the source.

Data set [1] concerns rat ventral prostate explant cultures (prostatein C3 mRNA). The experiment in a line: Measurement of Prostatein C3 mRNA in rat ventral prostate explant culture. The conditions noted are these: dihydrotestosterone 25 nM alone.
Source text: Testosterone was used as a control. […] Addition of androgens to the medium of rat prostate explant cultures maintains the mRNA for C3 subunit of prostatein, and measurement of either prostatein or its C3 subunit mRNA serves as a sensitive, androgen-responsive marker for the explant system.
For data set [2], the system named is 22 day old castrated male rats, seminal vesicle and ventral prostate. The experiment in a line: standard Hershberger androgenic assay (agonist androgenic activity). The conditions noted are these: for effect of drug dosage on prostate weight (FIG. 1): increasing dose, in words. The data set is classed as in vivo, rat.
The target of data set [3] is T1, Rat Prostate Androgen Receptor (Rattus norvegicus, UniProt P15207).
T1 construct: from tissue; host or cells: prostate cytosol (100,000×g supernatant) of gonadectomized male rats
T1 sequence (P15207 1-902): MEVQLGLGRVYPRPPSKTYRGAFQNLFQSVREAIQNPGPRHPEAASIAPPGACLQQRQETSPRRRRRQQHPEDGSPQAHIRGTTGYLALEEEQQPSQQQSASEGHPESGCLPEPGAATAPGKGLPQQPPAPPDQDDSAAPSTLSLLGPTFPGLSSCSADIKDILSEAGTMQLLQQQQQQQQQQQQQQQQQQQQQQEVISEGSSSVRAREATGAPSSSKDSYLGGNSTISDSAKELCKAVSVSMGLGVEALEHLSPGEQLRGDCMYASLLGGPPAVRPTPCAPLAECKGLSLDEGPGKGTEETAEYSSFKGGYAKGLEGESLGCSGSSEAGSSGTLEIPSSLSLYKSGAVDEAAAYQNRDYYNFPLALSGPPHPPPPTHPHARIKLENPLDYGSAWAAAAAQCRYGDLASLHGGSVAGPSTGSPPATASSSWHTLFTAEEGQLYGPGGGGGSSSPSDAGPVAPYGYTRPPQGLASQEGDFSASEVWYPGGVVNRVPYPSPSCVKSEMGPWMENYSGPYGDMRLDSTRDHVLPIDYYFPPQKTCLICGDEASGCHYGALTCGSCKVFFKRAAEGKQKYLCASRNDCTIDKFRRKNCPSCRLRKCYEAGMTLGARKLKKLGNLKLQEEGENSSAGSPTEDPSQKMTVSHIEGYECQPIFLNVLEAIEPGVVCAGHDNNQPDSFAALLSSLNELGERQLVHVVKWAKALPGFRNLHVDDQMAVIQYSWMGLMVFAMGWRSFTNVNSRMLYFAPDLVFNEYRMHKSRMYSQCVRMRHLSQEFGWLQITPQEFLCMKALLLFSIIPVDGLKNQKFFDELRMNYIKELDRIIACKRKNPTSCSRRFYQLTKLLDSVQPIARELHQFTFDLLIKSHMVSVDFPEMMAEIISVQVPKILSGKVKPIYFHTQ
Put plainly: Rat Prostate Androgen Receptor Competition Assay. The class given is binding. The conditions noted are these: for Relative Binding Affinity: 5α-DHT set at 100, conc. of 5αDHT at 50% binding inhibition/conc. competitor at 50% binding inhibition × 100; for Relative androgen receptor binding affinity: Table 3, repeats the values of Table 1. The protocol:
Male rats were gonadectomized 20-22 hours before killing. The animals were killed by decapitation and exsanguination. Prostates were kept on ice immediately after removal from the animals. After trimming off the fats, prostates were minced and homogenized in 3 volumes of Tris-HCl buffer (0.02 M, pH 7.4 containing 1.5 mM EDTA and 10% glycerol). The homogenate was centrifuged at 10,000×g for 10 minutes, and the resulting supernatant was centrifuged again at 100,000×g for 60 minutes. The final supernatant contained the androgen-binding receptor.
The mixture was brought up to 1.0 mL with Tris-HCl buffer used for homogenizing the tissue. The mixture was then incubated at 4° C. for 4 hr., with occasional shaking. At the end of incubation, the receptor-bound androgen was isolated by ammonium sulfate precipitation.
A 70% saturated ammonium sulfate solution was prepared and its pH is adjusted to 7.4 with aqueous NH3. To 1.0 mL of the labeled cytosol, 1.0 mL of the 70% saturated ammonium sulfate was added dropwise with gentle mixing. The sample was let stand at 0-4° C. for 35 minutes, then centrifuged at 10,000×g for 20 minutes. The precipitate was resuspended in 1.0 mL of the above-mentioned Tris-HCl buffer containing 2 mg of bovine albumin. The androgen-receptor complex was immediately reprecipitated by addition of equal volumes of 70% saturated ammonium sulfate. The sample was allowed to stand at 0-4° C. for another 45 minutes, then centrifuged again as outlined above. The supernatant was decanted and the walls of the tubes thoroughly dried with filter paper. The final precipitated protein was resuspended in 1.0 mL of the same buffer and then transferred quantitatively into a counting vial containing 10 mL of Scintisol for counting.

The test system of data set [4] is SEX ACCESSORY GLANDS AND TESTES OF 22-DAY OLD CASTRATED MALE RATS. The experiment in a line: Inhibition of Prostate Growth in Castrated Male Rats (testosterone supplemented). The data set is classed as in vivo, rat. The conditions noted are these: for In Vivo Percent Inhibition of Ventral Prostate Weight: castrated male rats given supplemental testosterone; for Final BW / Seminal Vesicle weight / Ventral Prostate weight: ten days, mean ± SE. How it is done:
Male rats weighing 36 to 38 grams were castrated at the age of 22 days. […] The castrated rats were treated with the steroids once daily for ten consecutive days. On the tenth day following treatment, the rats were sacrificed and autopsied and final seminal vesicle weights and ventral prostate weights determined.

Setting [5] is: doses of 0.8 mg, 1.6 mg, and 3.2 mg, versus vehicle alone.
Where [6] appears, read: compound 30.0 mg/day + testosterone propionate 0.6 mg/day.
Where [7] appears, read: testosterone propionate 0.6 mg/day alone, N=5.

For the compound `C[C@]12CCC(=O)C[C@@H]1CC[C@@H]1[C@@H]2CC[C@]2(C)[C@@H](O)CC[C@@H]12` [5α-Dihydrotestosterone, reference compound], in data set [1] (N=3), the “C3/28s × 100, percent of dihydrotestosterone” value came to 100% and the “C3 m-RNA, percent of dihydrotestosterone” value is 100%. Besides, the “C3 m-RNA” value in data set [1] (N=3, 30 disks/explant, printed spread ± 32,675) was 219,371. In addition, the “C3/28s × 100” value in data set [1] (N=3, printed spread ± 26.9) came out at 148.9.
With `CCC[C@]1(O)CC[C@H]2[C@@H]3CCC4=CC(=O)CCC4=C3CC[C@@]21C` [Compound II-1, 17α-Propylestra-4,9-dien-17β-ol-3-one], the “dose response curves for androgenic activity” value in data set [2] (22 day old castrated male rats) is recorded as “Very flat dose response curves”. Besides, the “agonist androgenic activity at the therapeutically effective antiandrogenic dose” value in data set [2] (by extrapolation to 30.0 mg, castrated male rat) is recorded as “essentially devoid of agonist androgenic activity”. In data set [2] (setting [5]), the “seminal vesicle weight (agonist androgenic activity)” value was “equal to the vehicle alone controls” and the “ventral prostate weight (agonist androgenic activity)” value is given as “equal to the vehicle alone controls”. In addition, the “effect of drug dosage on prostate weight (FIG. 1)” value in data set [2] is recorded as “fairly steady prostate weight, even at higher doses”. Moreover, in data set [3], the “Relative Binding Affinity” value is on record as 5.7 and the “Relative androgen receptor binding affinity” value worked out at 5.7. Also, the “affinity for the rat prostate androgen receptor compared with other known antiandrogens” value in data set [3] (in words) is “higher affinity for the androgen rat prostate receptor than all of the other known antiandrogens except cyproterone acetate; also recorded: higher affinity for the rat ventral prostate androgen receptor than the steroidal antiandrogen zanoterone (WIN®49,596); also recorded: higher affinity to the androgen receptor than three other nonsteroidal antiandrogen receptor antagonists flutamide, which is available as an antiandrogen in the United States, nilutamide, developed by Roussel in France, and Casodex® (ICI 176,334)”. Moreover, the “In Vivo Percent Inhibition of Ventral Prostate Weight” value in data set [4] came to 18.8 ± 5.74%. Also, in data set [4] (setting [6]), the “Final BW” value is reported as 88 ± 5 g, the “Seminal Vesicle weight” value is reported as 28.2 ± 2.8 mg and the “Ventral Prostate weight” value is given as 45.3 ± 2.5 mg. Besides, the “inhibition of prostate growth stimulated by exogenous testosterone” value in data set [4] (male castrated rats, in words) is recorded as “inhibit prostate growth stimulated by exogenous testosterone”.
For `CC(=O)O[C@]1(C(C)=O)CC[C@H]2[C@@H]3C=C(Cl)C4=CC(=O)[C@@H]5C[C@@H]5[C@]4(C)[C@H]3CC[C@@]21C` [Cyproterone acetate, reference compound], in data set [4], the “In Vivo Percent Inhibition of Ventral Prostate Weight” value is reported as 54.3 ± 8.34%. In data set [4] (setting [6]), the “Seminal Vesicle weight” value came out at 9.8 ± 0.8 mg and the “Ventral Prostate weight” value came to 30.0 ± 3.6 mg.
`CC(C)(O)C(=O)Nc1ccc([N+](=O)[O-])c(C(F)(F)F)c1` [Hydroxyflutamide, reference compound]: in data set [3], the “Relative Binding Affinity” value is 2.6 and the “Relative androgen receptor binding affinity” value came to 2.6.
Regarding `CCC(=O)O[C@H]1CC[C@H]2[C@@H]3CCC4=CC(=O)CC[C@]4(C)[C@H]3CC[C@]12C` [Testosterone propionate, reference compound], in data set [4] (setting [7]), the “Final BW” value is reported as 86 ± 4 g, the “Seminal Vesicle weight” value was 26.6 ± 34 mg and the “Ventral Prostate weight” value was 53.4 ± 5.8 mg.
As to `C#C[C@]1(O)CC[C@H]2[C@@H]3CC[C@H]4Cc5nn(S(C)(=O)=O)cc5C[C@]4(C)[C@H]3CC[C@@]21C` [Win 49,596, zanoterone, reference compound], in data set [3], the “Relative Binding Affinity” value turned out to be 2.2 and the “Relative androgen receptor binding affinity” value is recorded as 2.2.
Turning to `C[C@]12CC[C@H]3[C@@H](CCC4=CC(=O)CC[C@@]43C)[C@@H]1CC[C@@H]2O` [testosterone, reference compound], the “effect of drug dosage on prostate weight (FIG. 1)” value in data set [2] is given as “proportionate rise in prostate weight with increasing dose”.
